According to PubChem BioAssay AID1963860 (Molecular Pharmacology Branch, DTP, NCI, 2024):

Test system: CN0375-F725-PDC KRAS spheroid viability
Assay: Anticancer human tumor CN0375-F725-PDC patient-derived colon carcinoma cell line growth inhibition [KRAS2]
Conditions: spheroids with HUVEC and MSC; for IC50: curve of first compound; for viability, T/C: stronger effect = lower value
Source text: Multicellular complex tumor spheroid response to RAS pathway inhibitors in combination with a targeted agents in patient-derived cell lines with oncogenic KRAS variants from multiple cancer types
A high-throughput screen of multi-cell type tumor spheroids was designed to identify active combinations of targeted small molecules and KRAS pathway inhibitors. Complex spheroids include a stromal component modeled by human endothelial cells (HUVEC) and fibroblasts modeled by human mesenchymal stem cells (MSCs). The concentration ranges selected for each drug and investigational agent were based upon clinically achievable concentrations if the clinical Cmax of the agent was known.
Compounds. The drugs and investigational agents: BI-3406 (NSC825286), BAY-293 (NSC824723), batoprotafib (TNO155; NSC825523), sotorasib (AMG 510; NSC818433), MRTX1257 (NSC819558), elimusertib (BAY 1895344; NSC800525), molibresib (GSK525762; NSC774829), temuterkib (LY3214996; NSC803410), venetoclax (NSC766270), alisertib (NSC759677), olaparib (NSC753686), talazoparib (NSC767125), erdafitinib (NSC781556), ipatasertib (NSC767898), cabozantinib (NSC761068), nintedanib (NSC756659), abemaciclib (NSC768073), docetaxel (NSC628503), trametinib (NSC758246), and sapanisertib (NSC764658) were obtained from the National Cancer Institute (NCI) Developmental Therapeutics Program Chemical Repository. The FDA-approved anticancer drug set is available from the Developmental Therapeutics Program. […] The stock solutions were prepared in dimethyl sulfoxide (DMSO, Sigma-Aldrich, St. Louis, MO, cat. D2650) at 800-fold the tested concentration and stored at -70 degrees C prior to their use. All drugs and investigational agents were tested over a range starting from a high concentration at or near the clinical Cmax and decreasing in half-log increments. If the clinical Cmax for an agent had not been determined, the highest concentration tested was 10 microM.
Cell Culture. All cells were maintained in an incubator at 37 degrees C and 5% CO2 with 95% humidity. The PDC lines were cultured according to standard operating procedures established by the NCI PDMR (https://pdmr.cancer.gov/sops/default.htm). Briefly, all PDCs were thawed and cultured in Matrigel-coated flasks prepared with a working solution of 1X Ham's F-12 nutrient mix, without supplementation (Invitrogen, Waltham, MA, cat. 11765054), 100 U/mL penicillin-streptomycin (Invitrogen, cat. 15140122), and 2.5% Matrigel (Corning Inc., Corning, NY, cat. 354248) for the first three passages. All PDCs were cultured in complete DMEM/F-12 media containing advanced DMEM/F-12 (Invitrogen, cat. 12634028), 4.9% defined fetal bovine serum, heat inactivated (HyClone Laboratories Inc., Logan, UT, cat. SH30070.03HI), 389 ng/mL hydrocortisone (Sigma-Aldrich, cat. H4001), 9.7 ng/mL human EGF recombinant protein (Invitrogen, cat. PHG0313), 23.4 microg/mL adenine (Sigma-Aldrich, cat. A2786), 97.3 U/mL penicillin-streptomycin (Invitrogen, cat. 15140122), 1.9 mM L-glutamine (Invitrogen, cat. 25030081), and 9.7 microM Y-27632 dihydrochloride (Tocris Bioscience, Bristol, United Kingdom, cat. 1254). The PDCs were cultured in complete DMEM/F12 media without 9.7 microM Y-27632 dihydrochloride for at least two passages prior to the screen. The established cell line HOP-62 was cultured in RPMI 1640 medium, HEPES (Invitrogen, cat. 22400105) with 10% defined fetal bovine serum (HyClone Laboratories Inc., cat. SH30070.03) and 2 mM L-glutamine (Invitrogen, cat. 25030081). The pooled donor HUVEC were cultured in endothelial cell growth medium 2 (PromoCell, Heidelberg, Germany, cat. C-22011) and the hMSC were cultured in mesenchymal stem cell growth medium 2 (PromoCell, cat. C-28009). For all experiments, HUVEC and hMSC were used at passages </=5, while the malignant cell lines were used at passages </=15. […]
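Note: spheroids exposed to agents for 7 days.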

SMILES: COc1cc2nccc(Oc3ccc(NC(=O)C4(C(=O)Nc5ccc(F)cc5)CC4)cc3)c2cc1OC + C=CC(=O)N1CCN(c2nc(=O)n(-c3c(C)ccnc3C(C)C)c3nc(-c4c(O)cccc4F)c(F)cc23)C(C)C1
- IC50 (second compound 0.1 µM): > 10 µM
- IC50 (second compound 0.316 µM): > 10 µM
- IC50 (second compound 1 µM): > 10 µM
- IC50 (second compound 3.16 µM): > 10 µM
- IC50 (second compound 10 µM): 1.97 µM
- viability, T/C (second compound 0.1 µM, first compound 0.0316 µM): 109%
- viability, T/C (second compound 0.1 µM, first compound 0.1 µM): 106%
- viability, T/C (second compound 0.1 µM, first compound 0.316 µM): 96.3%
- viability, T/C (second compound 0.1 µM, first compound 1 µM): 89%
- viability, T/C (second compound 0.1 µM, first compound 3.16 µM): 63.5%
- viability, T/C (second compound 0.1 µM, first compound 10 µM): 74.1%
- viability, T/C (second compound 0.316 µM, first compound 0.0316 µM): 113%
- viability, T/C (second compound 0.316 µM, first compound 0.1 µM): 102%
- viability, T/C (second compound 0.316 µM, first compound 0.316 µM): 92%
- viability, T/C (second compound 0.316 µM, first compound 1 µM): 85.4%
- viability, T/C (second compound 0.316 µM, first compound 3.16 µM): 63.8%
- viability, T/C (second compound 0.316 µM, first compound 10 µM): 62.1%
- viability, T/C (second compound 1 µM, first compound 0.0316 µM): 114%
- viability, T/C (second compound 1 µM, first compound 0.1 µM): 117%
- viability, T/C (second compound 1 µM, first compound 0.316 µM): 94.7%
- viability, T/C (second compound 1 µM, first compound 1 µM): 91.1%
- viability, T/C (second compound 1 µM, first compound 3.16 µM): 58.2%
- viability, T/C (second compound 1 µM, first compound 10 µM): 71.1%
- viability, T/C (second compound 3.16 µM, first compound 0.0316 µM): 109%
- viability, T/C (second compound 3.16 µM, first compound 0.1 µM): 107%
- viability, T/C (second compound 3.16 µM, first compound 0.316 µM): 96.9%
- viability, T/C (second compound 3.16 µM, first compound 1 µM): 89.8%
- viability, T/C (second compound 3.16 µM, first compound 3.16 µM): 51.5%
- viability, T/C (second compound 3.16 µM, first compound 10 µM): 62.1%
- viability, T/C (second compound 10 µM, first compound 0.0316 µM): 99.4%
- viability, T/C (second compound 10 µM, first compound 0.1 µM): 96.4%
- viability, T/C (second compound 10 µM, first compound 0.316 µM): 85.7%
- viability, T/C (second compound 10 µM, first compound 1 µM): 69.3%
- viability, T/C (second compound 10 µM, first compound 3.16 µM): 31.9%
- viability, T/C (second compound 10 µM, first compound 10 µM): 41.1%
